Laboratory results: ChEMBL document CHEMBL5291721, “A preclinical secondary pharmacology resource illuminates target-adverse drug reaction associations of marketed drugs” (Nat Commun, 2023)

Tests used:
[1] = target: T1, Neuropeptide Y receptor type 1 (Homo sapiens, UniProt P25929)
T1 sequence (P25929 whole entry): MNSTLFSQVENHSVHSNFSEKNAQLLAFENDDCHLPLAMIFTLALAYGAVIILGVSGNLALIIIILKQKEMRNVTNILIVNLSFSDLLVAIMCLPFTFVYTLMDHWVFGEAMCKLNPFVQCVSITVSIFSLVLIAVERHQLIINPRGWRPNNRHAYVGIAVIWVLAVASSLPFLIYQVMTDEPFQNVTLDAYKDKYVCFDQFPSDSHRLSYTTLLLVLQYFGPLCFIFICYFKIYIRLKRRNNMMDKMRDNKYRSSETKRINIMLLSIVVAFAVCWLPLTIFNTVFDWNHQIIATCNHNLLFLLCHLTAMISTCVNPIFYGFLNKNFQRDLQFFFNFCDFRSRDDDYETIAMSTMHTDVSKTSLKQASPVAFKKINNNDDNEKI

[2] = target: Muscarinic acetylcholine receptor M3 (Homo sapiens, UniProt P20309)
Chain of Muscarinic acetylcholine receptor M3 (P20309 whole entry): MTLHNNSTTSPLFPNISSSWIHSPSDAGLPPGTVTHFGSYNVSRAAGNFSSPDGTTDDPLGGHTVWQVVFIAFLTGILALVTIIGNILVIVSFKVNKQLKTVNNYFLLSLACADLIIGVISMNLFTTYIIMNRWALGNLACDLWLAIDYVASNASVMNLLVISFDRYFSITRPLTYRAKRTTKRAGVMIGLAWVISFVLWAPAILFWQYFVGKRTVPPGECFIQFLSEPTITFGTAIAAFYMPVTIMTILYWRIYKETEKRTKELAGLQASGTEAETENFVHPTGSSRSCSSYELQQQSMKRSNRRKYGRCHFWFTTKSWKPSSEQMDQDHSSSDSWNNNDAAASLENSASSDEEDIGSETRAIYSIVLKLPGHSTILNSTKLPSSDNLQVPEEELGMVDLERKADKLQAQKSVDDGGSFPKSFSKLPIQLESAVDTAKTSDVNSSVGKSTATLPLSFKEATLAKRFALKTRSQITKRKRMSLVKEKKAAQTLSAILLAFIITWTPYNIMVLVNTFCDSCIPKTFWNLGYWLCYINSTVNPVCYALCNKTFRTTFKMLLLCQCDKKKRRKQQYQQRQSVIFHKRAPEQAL

[3] = target: T2, Alpha-2C adrenergic receptor (Homo sapiens, UniProt P18825); format: functional
T2 sequence (P18825 whole entry): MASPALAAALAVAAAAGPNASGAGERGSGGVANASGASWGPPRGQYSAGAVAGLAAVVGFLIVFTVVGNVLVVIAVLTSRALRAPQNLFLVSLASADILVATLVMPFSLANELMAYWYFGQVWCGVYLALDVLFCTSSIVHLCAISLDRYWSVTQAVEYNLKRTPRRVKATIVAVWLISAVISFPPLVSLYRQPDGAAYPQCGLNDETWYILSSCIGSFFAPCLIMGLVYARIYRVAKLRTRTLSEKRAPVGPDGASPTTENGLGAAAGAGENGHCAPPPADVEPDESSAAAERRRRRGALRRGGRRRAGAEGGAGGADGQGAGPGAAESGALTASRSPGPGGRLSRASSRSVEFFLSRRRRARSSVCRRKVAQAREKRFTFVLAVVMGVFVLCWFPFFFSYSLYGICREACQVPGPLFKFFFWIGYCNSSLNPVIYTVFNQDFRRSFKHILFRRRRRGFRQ

[4] = target: T3, 5-hydroxytryptamine receptor 2C (Homo sapiens, UniProt P28335)
T3 sequence (P28335 whole entry): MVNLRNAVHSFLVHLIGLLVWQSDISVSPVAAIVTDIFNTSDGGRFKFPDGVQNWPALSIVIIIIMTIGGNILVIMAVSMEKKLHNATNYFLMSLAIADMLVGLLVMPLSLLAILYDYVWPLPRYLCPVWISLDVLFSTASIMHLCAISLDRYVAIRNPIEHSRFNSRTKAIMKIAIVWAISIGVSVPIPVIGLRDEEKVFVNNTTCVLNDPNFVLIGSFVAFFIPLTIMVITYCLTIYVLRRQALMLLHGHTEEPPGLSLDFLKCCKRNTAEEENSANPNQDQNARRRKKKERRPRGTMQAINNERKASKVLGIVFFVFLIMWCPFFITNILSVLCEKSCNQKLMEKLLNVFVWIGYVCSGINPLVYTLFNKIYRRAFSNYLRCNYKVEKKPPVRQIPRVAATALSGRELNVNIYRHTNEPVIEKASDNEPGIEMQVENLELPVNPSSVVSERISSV

[5] = target: D(1A) dopamine receptor (Homo sapiens, UniProt P21728); format: functional, cell-based
Chain of D(1A) dopamine receptor (P21728 whole entry): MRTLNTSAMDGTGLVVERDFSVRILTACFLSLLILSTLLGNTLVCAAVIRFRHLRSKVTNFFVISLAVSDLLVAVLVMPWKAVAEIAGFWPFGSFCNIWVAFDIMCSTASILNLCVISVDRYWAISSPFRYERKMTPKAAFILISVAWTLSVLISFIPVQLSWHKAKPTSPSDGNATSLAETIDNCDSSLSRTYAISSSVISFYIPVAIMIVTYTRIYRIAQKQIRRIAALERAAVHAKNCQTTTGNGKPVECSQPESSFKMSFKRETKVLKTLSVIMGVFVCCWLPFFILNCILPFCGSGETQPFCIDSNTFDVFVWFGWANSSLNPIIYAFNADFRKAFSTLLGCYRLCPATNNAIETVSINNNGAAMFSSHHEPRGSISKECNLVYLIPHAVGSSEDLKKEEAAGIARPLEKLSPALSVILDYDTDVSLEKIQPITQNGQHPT

[6] = target: T4, Muscarinic acetylcholine receptor M2 (Homo sapiens, UniProt P08172); format: functional, cell-based
T4 sequence (P08172 whole entry): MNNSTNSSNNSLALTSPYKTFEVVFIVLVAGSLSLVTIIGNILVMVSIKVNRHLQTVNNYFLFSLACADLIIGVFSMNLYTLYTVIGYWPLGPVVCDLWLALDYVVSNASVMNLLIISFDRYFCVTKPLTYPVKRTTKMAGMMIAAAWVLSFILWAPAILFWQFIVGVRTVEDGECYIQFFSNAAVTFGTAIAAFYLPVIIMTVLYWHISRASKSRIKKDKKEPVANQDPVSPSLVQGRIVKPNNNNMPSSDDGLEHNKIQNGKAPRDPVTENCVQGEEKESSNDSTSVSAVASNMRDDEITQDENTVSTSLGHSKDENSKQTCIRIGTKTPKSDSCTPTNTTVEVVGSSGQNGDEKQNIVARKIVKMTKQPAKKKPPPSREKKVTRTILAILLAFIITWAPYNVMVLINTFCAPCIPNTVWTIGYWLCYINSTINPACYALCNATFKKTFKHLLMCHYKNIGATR

[7] = target: T5, Progesterone receptor (Homo sapiens, UniProt P06401); format: functional
T5 sequence (P06401 whole entry): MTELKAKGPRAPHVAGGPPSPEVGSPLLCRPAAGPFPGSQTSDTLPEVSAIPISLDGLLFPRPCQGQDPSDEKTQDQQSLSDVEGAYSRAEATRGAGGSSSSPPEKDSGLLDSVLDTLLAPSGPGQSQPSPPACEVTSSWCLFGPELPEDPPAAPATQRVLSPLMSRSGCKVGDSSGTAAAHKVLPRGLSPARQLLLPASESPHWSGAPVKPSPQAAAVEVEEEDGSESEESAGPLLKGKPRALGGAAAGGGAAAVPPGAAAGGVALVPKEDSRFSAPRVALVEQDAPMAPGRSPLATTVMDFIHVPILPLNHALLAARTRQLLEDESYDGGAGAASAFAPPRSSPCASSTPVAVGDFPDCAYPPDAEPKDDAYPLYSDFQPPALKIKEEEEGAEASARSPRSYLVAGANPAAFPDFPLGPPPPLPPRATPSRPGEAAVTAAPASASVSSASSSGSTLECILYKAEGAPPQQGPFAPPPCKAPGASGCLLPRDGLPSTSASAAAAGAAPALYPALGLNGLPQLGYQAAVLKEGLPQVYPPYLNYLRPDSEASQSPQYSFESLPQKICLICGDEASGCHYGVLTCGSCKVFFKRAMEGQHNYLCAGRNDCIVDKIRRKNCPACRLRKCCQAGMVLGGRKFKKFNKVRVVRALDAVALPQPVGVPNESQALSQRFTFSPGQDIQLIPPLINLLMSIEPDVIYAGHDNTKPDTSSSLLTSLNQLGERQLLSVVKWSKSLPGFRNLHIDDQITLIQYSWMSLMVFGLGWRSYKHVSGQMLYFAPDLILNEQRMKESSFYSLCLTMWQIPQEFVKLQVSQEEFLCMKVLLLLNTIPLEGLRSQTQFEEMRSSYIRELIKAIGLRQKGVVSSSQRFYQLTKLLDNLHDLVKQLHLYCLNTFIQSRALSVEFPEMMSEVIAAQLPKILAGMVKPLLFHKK

[8] = target: 5-hydroxytryptamine receptor 2A (Homo sapiens, UniProt P28223); format: functional, cell-based
Chain of 5-hydroxytryptamine receptor 2A (P28223 whole entry): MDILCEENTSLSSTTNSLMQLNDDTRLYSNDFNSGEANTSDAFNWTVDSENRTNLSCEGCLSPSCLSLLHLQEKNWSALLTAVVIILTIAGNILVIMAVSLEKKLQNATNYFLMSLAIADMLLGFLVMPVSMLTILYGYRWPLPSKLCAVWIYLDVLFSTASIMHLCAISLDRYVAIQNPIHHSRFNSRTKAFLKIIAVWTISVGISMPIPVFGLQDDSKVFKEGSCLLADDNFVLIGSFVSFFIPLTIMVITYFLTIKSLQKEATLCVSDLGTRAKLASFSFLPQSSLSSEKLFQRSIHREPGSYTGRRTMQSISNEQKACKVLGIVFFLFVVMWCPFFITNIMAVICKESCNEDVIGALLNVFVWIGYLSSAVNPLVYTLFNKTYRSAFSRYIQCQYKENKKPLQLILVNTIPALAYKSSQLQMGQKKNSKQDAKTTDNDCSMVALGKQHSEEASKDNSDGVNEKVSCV
Also: assay procedure not described here.

Compound | AC50 [1] | AC50 [2] | AC50 [3] | AC50 [4] | AC50 [5] | AC50 [6] | AC50 [7] | AC50 [8]
N#Cc1ccc([C@H]2CCc3cncn32)c(F)c1 [OSILODROSTAT] | > 10 µM | > 10 µM | > 10 µM | > 10 µM |  |  |  | 
CN1C(=O)OC(C)(C)C1=O [TRIMETHADIONE] | > 10 µM |  | > 10 µM | > 30 µM | > 10 µM | > 10 µM | > 10 µM | 
CC=CC(=O)N(CC)c1ccccc1C | > 10 µM |  | > 10 µM | > 30 µM | > 10 µM | > 10 µM | > 10 µM | 
CNC(C)CCC=C(C)C (stereo unspecified) [ISOMETHEPTENE] | > 30 µM |  |  |  |  |  | > 30 µM | 
CC[C@@H]1C(=O)OC[C@@H]1Cc1cncn1C [PILOCARPINE] | > 30 µM |  | > 10 µM | > 30 µM | > 10 µM |  |  | > 30 µM
C/C(O)=C(\C#N)C(=O)Nc1ccc(C(F)(F)F)cc1 [TERIFLUNOMIDE] |  | > 30 µM | > 30 µM | > 30 µM | > 30 µM | > 30 µM | > 30 µM | 28 µM
CCCCc1ncc(/C=C(\Cc2cccs2)C(=O)O)n1Cc1ccc(C(=O)O)cc1 [EPROSARTAN] | > 10 µM | > 10 µM | > 10 µM | > 10 µM | > 30 µM | > 10 µM |  | > 30 µM
O=C(O)C[C@H](O)C[C@H](O)/C=C/c1c(C2CC2)nc2ccccc2c1-c1ccc(F)cc1 [PITAVASTATIN] | > 10 µM | > 30 µM | > 30 µM | > 30 µM | > 10 µM | > 30 µM | > 30 µM | > 30 µM
CN1C(=O)C(O)N=C(c2ccccc2)c2cc(Cl)ccc21 (stereo unspecified) [TEMAZEPAM] | > 30 µM | > 10 µM | > 10 µM | > 30 µM | > 10 µM | > 10 µM |  | > 30 µM
NCC[C@H](O)C(=O)N[C@@H]1C[C@H](N)[C@@H](O[C@H]2O[C@H](CN)[C@@H](O)[C@H](O)[C@H]2O)[C@H](O)[C@H]1O[C@H]1O[C@H](CO)[C@@H](O)[C@H](N)[C@H]1O [AMIKACIN] | > 10 µM |  | > 10 µM | > 30 µM | > 10 µM | > 10 µM | > 10 µM | 
COc1ccc2c3c1O[C@H]1C(=O)CC[C@@]4(O)[C@@H](C2)N(C)CC[C@]314 [OXYCODONE] | > 30 µM | > 30 µM |  | > 30 µM | > 30 µM | > 30 µM | > 30 µM | > 30 µM
C=CCC1(C(C)CC)C(=O)NC(=O)NC1=O (stereo unspecified) [TALBUTAL] | > 10 µM | > 30 µM | > 10 µM | > 30 µM | > 10 µM | > 10 µM | > 10 µM | > 10 µM
CC1(C)O[C@@H]2C[C@H]3[C@@H]4CCC5=CC(=O)C=C[C@]5(C)[C@H]4[C@@H](O)C[C@]3(C)[C@]2(C(=O)CO)O1 [DESONIDE] | > 10 µM | > 30 µM | > 10 µM | > 30 µM | > 10 µM | > 10 µM | 0.065 µM | > 10 µM
CCc1c(Cl)c(O)c(Cl)c(O)c1C(=O)O[C@H]1[C@H](O)[C@H](OC)[C@H](OC/C2=C\C=C\C[C@H](O)/C(C)=C/[C@H](CC)[C@@H](O[C@@H]3OC(C)(C)[C@@H](OC(=O)C(C)C)[C@H](O)[C@@H]3O)/C(C)=C/C(C)=C/C[C@@H]([C@@H](C)O)OC2=O)O[C@@H]1C [FIDAXOMICIN] | > 30 µM |  | > 30 µM | > 30 µM |  |  | > 30 µM | 18 µM
CC(C)(C)c1cc(C(C)(C)C)c(NC(=O)c2c[nH]c3ccccc3c2=O)cc1O [IVACAFTOR] | > 30 µM | > 30 µM | > 10 µM | > 30 µM |  |  |  | 
C#C[C@]1(O)CC[C@H]2[C@@H]3CCC4=Cc5oncc5C[C@]4(C)[C@H]3CC[C@@]21C [DANAZOL] | > 10 µM |  | > 10 µM | > 30 µM |  | > 10 µM | 0.019 µM | 
COc1ccc2c3c1O[C@H]1[C@@H](O)C=C[C@H]4[C@@H](C2)N(C)CC[C@@]341 [CODEINE] | > 30 µM | > 30 µM | > 10 µM | > 30 µM | > 10 µM | > 10 µM |  | 
CNS(=O)(=O)Cc1ccc2[nH]cc(CCN(C)C)c2c1 | > 30 µM |  | > 30 µM |  | > 30 µM | > 30 µM |  | 
CC(C[N+](C)(C)C)OC(N)=O (stereo unspecified) [BETHANECHOL] | > 10 µM | > 30 µM | > 10 µM | > 30 µM | > 10 µM |  | > 10 µM | > 10 µM
CN1CCC(=C2c3ccccc3CCc3sccc32)CC1 [PIZOTYLINE] | > 30 µM | > 10 µM | 2.1 µM | 0.017 µM | > 30 µM | 0.123 µM |  | 0.0379 µM
CCCc1nc(C(C)(C)O)c(C(=O)OCc2oc(=O)oc2C)n1Cc1ccc(-c2ccccc2-c2nnn[nH]2)cc1 [OLMESARTAN MEDOXOMIL] | > 10 µM | > 10 µM | > 10 µM | > 10 µM | > 10 µM | > 10 µM |  | 
CN1CCN(CC/C=C2/c3ccccc3Sc3ccc(S(=O)(=O)N(C)C)cc32)CC1 [THIOTHIXENE] | > 30 µM | > 10 µM |  | 2.8 µM | > 30 µM | > 10 µM |  | 
CC(C)Cn1cnc2c(N)nc3ccccc3c21 [IMIQUIMOD] | > 10 µM |  | > 10 µM | > 30 µM | > 10 µM | > 10 µM | > 10 µM | 
